Reference: patent US7579353B2, “Pyridinone derivatives against malaria” (Glaxo Group Limited, priority 2005, dated 2009)

tested on: Plasmodium falciparum; experiment: In vitro anti-malarial activity against Plasmodium falciparum, IC50 assay / [3H]-hypoxanthine incorporation assay; assay type: cell-based; conditions: Erythrocyte, parasitized red blood cells, 48 hours
Experimental: In Vitro Anti-malarial Activity Against Plasmodium falciparum
IC50 Assay/[^3H]-Hypoxanthine Assay
Plasmodium falciparum strains.
The culture medium comprised RPMI 1640 with 25 mM HEPES, sodium bicarbonate and glutamine (GIBCO™ cat. ref.: 52400), supplemented with 10% of pooled human sera AB (Irvine Scientific, cat. ref.: 5009) and HT supplement (0.15 mM hypoxanthine and 24 μM thymidine), (GIBCO™ cat. ref.: 41065). Human sera were decomplemented 30 min. at 56° C., aliquoted and stored frozen at −20° C. until use in this culture medium.
Red blood cells O+ stock suspensions were prepared from whole blood bags coming from incomplete blood donation, provided by the Spanish Red Cross (<25 days after sampling). This “whole blood” was aliquoted and stored at 4° C.
To prepare red blood cells for the assay, the whole blood was centrifuged and washed 3 times with RPMI without serum. The upper phase, containing white blood cells was removed. The washed red blood cells were kept as a 50% suspension in complete medium. The prepared cells were stored at 4° C. and were employed in the assay at any time up to 4 days after preparation.
Test compounds were dissolved at 2 mg/ml in 100% DMSO on the day of the assay. If necessary, complete dissolution was achieved by gentle heating (the mixture was heated at a temperature <37° C.) and sonication (sonication bath).
For IC50 determinations, 10 serial 2-fold dilutions were prepared in complete medium in the presence of a constant amount of DMSO.
Plasmodium falciparum strains were maintained in complete medium at an hematocrit of 5% in continuous culture using a method adapted from Trager and Jensen (1, 2).
The parasitemia was calculated by counting the percentage of parasitized erythrocytes by optical microscopy. Thin films of blood were made every day from each culture flask, fixed with methanol and stained for 10 min. in Giemsa (Merck, cat ref.: 1.09204) at 10% in buffered water pH 7.2. The glass slides were observed and counted with an optical microscope (Nikon, Eclipse E200) equipped with a 100× immersion oil objective.
The culture was maintained at an hematocrit of 5%, with a daily change of medium and was diluted when parasitemia had reached about 5%.
[^3H] Hypoxanthine incorporation assay was conducted using a method adapted from Desjardins et al. (3). The assays were performed in 96 wells flat bottom microplates.
1. Serial dilutions of the test compounds (50 μl of a 5× solution/well) were deposited in duplicate. Compounds of the invention were tested in this assay. Chloroquine and Atovaquone were used as control compounds for each assay.
3. [^3H]-Hypoxanthine (Amersham Biosciences, cat. ref.: TRK74) was added extemporaneously to the inoculum suspension at a concentration of 1 μCi/ml (equating to […]). 200 μl of the resulting suspension was distributed into each well (other than the control well H12 described below) leading to a final volume of 250 μl per well, at 2% of hematocrit and 0.5% of parasitemia/well.
4. In each plate, 2 columns were reserved for control wells: • Column 11: Positive control wells: PRBCs with 0.2% DMSO—(i) to determine DMSO solvent effect on parasite growth (at a final concentration of 0.2%) and (ii) to compare with cultures treated with test compounds. • Column 12 (comprising wells A12-H12): • A12-D12—Background value wells: Uninfected RBCs—blank control to obtain the background reading from RBCs without parasites. • E12-G12—Solvent effect wells: PRBCs without DMSO—to determine DMSO solvent effect on PRBCs by comparing these wells with column 11 wells. • H12-Non-radioactive well: PRBCs with cold hypoxanthine—(i) to carry out a thin blood film to determine parasitemia value after incubation by microscopy and (ii) to ensure that the parasites have grown properly during the assay. (200 μl of inoculum suspension was prepared as described above (Items 2 and 3) but with non-tritiated hypoxanthine instead of [3H]-hypoxanthine, then added to this well to a final volume of 250 μl). […]

| SMILES | IC50 [µg/mL] |
| --- | --- |
| Cc1[nH]c(C)c(-c2ccc(-c3ccc(OCC(F)(F)F)cc3)nc2)c(=O)c1Cl [Example 62, 5-Chloro-2,6-dimethyl-6′-{4-[2,2,2-trifluoroethoxy]phenyl}-3,3′-bipyridin-4(1H)-one] | < 0.125 |
| Cc1[nH]c(C)c(-c2ccc(-c3ccc(C(F)F)cc3)nc2)c(=O)c1Cl [Example 63, 5-Chloro-2,6-dimethyl-6′-{4-[difluoromethyl]phenyl}-3,3′-bipyridin-4(1H)-one] | < 0.125 |
| Cc1[nH]c(C)c(-c2ccc(-c3cccc(OC(F)(F)F)c3)nc2)c(=O)c1Cl [Example 28, 5-Chloro-2,6-dimethyl-6′-{3-[(trifluoromethyl)oxy]phenyl}-3,3′-bipyridin-4(1H)-one] | < 0.125 |
| Cc1[nH]c(C)c(-c2ccc(C#Cc3ccc(C(F)(F)F)cc3)nc2)c(=O)c1Cl [Example 41, 5-Chloro-2,6-dimethyl-6′-{[4-(trifluoromethyl)phenyl]ethynyl}-3,3′-bipyridin-4(1H)-one] | < 0.125 |
| Cc1[nH]c(C)c(-c2ccc(-c3ccc(OC(F)(F)F)cc3)nc2)c(=O)c1Cl.Cl [Example 38, 5-Chloro-2,6-dimethyl-6′-{4-[(trifluoromethyl)oxy]phenyl}-3,3′-bipyridin-4(1H)-one] | < 0.125 |
| Cc1[nH]c(C)c(-c2ccc(OCc3cc(C(F)(F)F)cc(C(F)(F)F)c3)nc2)c(=O)c1Cl [Example 12, 5-Chloro-2,6-dimethyl-6′-{[3,5-bis(trifluoromethyl)benzyl]oxy}-3,3′-bipyridin-4(1H)-one] | < 0.125 |
| Cc1[nH]c(C)c(-c2ccc(CCc3ccc(F)cc3F)nc2)c(=O)c1Cl [Example 46, 5-Chloro-6′-{2-[2,4-difluorophenyl]ethyl}-2,6-dimethyl-3,3′-bipyridin-4(1H)-one] | < 0.125 |
| Cc1[nH]c(C)c(-c2ccc(Oc3cccc(C(F)(F)F)c3)cc2)c(=O)c1Cl [Compound Z, 3-Chloro-2,6-dimethyl-5-(4-{[3-(trifluoromethyl)phenyl]oxy}phenyl)-4(1H)pyridinone, reference compound] | < 0.125 |
| Cc1[nH]c(C)c(-c2ccc(OCc3cc(C(F)(F)F)cc(C(F)(F)F)c3)nc2)c(=O)c1Br [Example 5, 5-Bromo-2,6-dimethyl-6′-{[3,5-bis(trifluoromethyl)benzyl]oxy}-3,3′-bipyridin-4(1H)-one] | < 0.125 |
| Cc1[nH]c(C)c(-c2ccc(CCc3cccc(C(F)(F)F)c3)nc2)c(=O)c1Br [Example 43, 5-Bromo-2,6-dimethyl-6′-{2-[3-(trifluoromethyl)phenyl]ethyl}-3,3′-bipyridin-4(1H)-one] | < 0.125 |
| Cc1[nH]c(C)c(-c2ccc(OCc3cccc(C(F)(F)F)c3)nc2)c(=O)c1Cl [Example 9, 5-Chloro-2,6-dimethyl-6′-{[3-(trifluoromethyl)benzyl]oxy}-3,3′-bipyridin-4(1H)-one] | < 0.125 |
| Cc1[nH]c(C)c(-c2ccc(OCc3cccc(C(F)(F)F)c3)nc2)c(=O)c1Br [Example 2, 5-Bromo-2,6-dimethyl-6′-{[3-(trifluoromethyl)benzyl]oxy}-3,3′-bipyridin-4(1H)-one] | < 0.125 |
| Cc1[nH]c(C)c(-c2ccc(-c3ccccc3OC(F)(F)F)nc2)c(=O)c1Cl [Example 29, 5-Chloro-2,6-dimethyl-6′-{2-[(trifluoromethyl)oxy]phenyl}-3,3′-bipyridin-4(1H)-one] | < 0.125 |
| Cc1[nH]c(C)c(-c2ccc(OCc3ccc(F)cc3)nc2)c(=O)c1Br [Example 6, 5-Bromo-6′-{[4-fluorobenzyl]oxy}-2,6-dimethyl-3,3′-bipyridin-4(1H)-one] | < 0.125 |

Results, then the compound that gave them:

| IC50 [µg/mL] | SMILES |
| --- | --- |
| < 0.125 | Cc1[nH]c(C)c(-c2ccc(-c3ccccc3C(F)(F)F)nc2)c(=O)c1Cl [Example 32, 5-Chloro-2,6-dimethyl-6′-{2-[trifluoromethyl]phenyl}-3,3′-bipyridin-4(1H)-one] |
| < 0.125 | Cc1[nH]c(C)c(-c2ccc(-c3ccc4c(c3)OCO4)nc2)c(=O)c1Cl [Example 54] |
| < 0.125 | Cc1[nH]c(C)c(-c2ccc(-c3cccc(C(F)(F)F)c3)nc2)c(=O)c1Cl [Example 31, 5-Chloro-2,6-dimethyl-6′-{3-[trifluoromethyl]phenyl}-3,3′-bipyridin-4(1H)-one] |
| < 0.125 | Cc1[nH]c(C)c(-c2ccc(C#Cc3ccc(C(F)(F)F)cc3)nc2)c(=O)c1Br [Example 40, 5-Bromo-2,6-dimethyl-6′-{[4-(trifluoromethyl)phenyl]ethynyl}-3,3′-bipyridin-4(1H)-one] |
| < 0.125 | Cc1[nH]c(C)c(-c2ccc(OCc3cc(F)cc(F)c3)nc2)c(=O)c1Cl [Example 14, 5-Chloro-6′-{[3,5-difluorobenzyl]oxy}-2,6-dimethyl-3,3′-bipyridin-4(1H)-one] |
| < 0.125 | Cc1[nH]c(C)c(-c2ccc(-c3ccccc3Cl)nc2)c(=O)c1Cl [Example 35, 5-Chloro-6′-(2-chlorophenyl)-2,6-dimethyl-3,3′-bipyridin-4(1H)-one] |
| < 0.125 | Cc1[nH]c(C)c(-c2ccc(Oc3ccc(OC(F)(F)F)cc3)cc2)c(=O)c1Cl [Compound Y, 3-chloro-5-(4-(4-trifluoromethoxyphenoxy)phenyl)-2,6-dimethylpyridin-4(1H)-one, reference compound] |
| < 0.125 | CCCCCCCc1ccc(-c2c(C)[nH]c(C)c(Cl)c2=O)cn1 [Example 47, 5-Chloro-6′-(n-heptyl)-2,6-dimethyl-3,3′-bipyridin-4(1H)-one] |
